Experimental data published in patent US8193160B2 (priority 2006, dated 2012).
≈ marks a conversion by molar mass, not a printed value.

Legend:
[1] = test system: Magnaporthe vegetative mycelia, wild type Guy11; assay: microbe, parasite or virus in culture; assay type: cell-based, Magnaporthe grisea; details: for MIC: Pyricularia oryzae, read-out: Minimum Inhibitory Concentration (MIC), Guy11
[2] = test system: wild type conidia; assay type: cell-based, Magnaporthe grisea
[3] = test system: wild type appressoria; assay type: cell-based, Magnaporthe grisea
[4] = test system: abc3Δ conidia; assay type: cell-based, Magnaporthe grisea
[5] = test system: ABC3 promoter; assay type: cell-based, Magnaporthe grisea
[6] = test system: wild type Guy11 strain

Compound: CCCCNC(=O)n1c(NC(=O)OC)nc2ccccc21 [Benomyl]
- MIC [1]: 2 µg/mL (≈ 6.89 µM)

Compound: C[C@H]1CCC/C=C/[C@@H]2C[C@H](O)C[C@H]2[C@H](O)/C=C/C(=O)O1 [Brefeldin A]
- Minimum Inhibitory Concentration (MIC), Guy11 [1]: 40 µg/mL

Compound: OC(Cn1cncn1)(Cn1cncn1)c1ccc(F)cc1F [Fluconazole]
- MIC [1]: 2500 µg/mL (≈ 8160 µM)

Compound: CCC(C)n1ncn(-c2ccc(N3CCN(c4ccc(OCC5COC(Cn6cncn6)(c6ccc(Cl)cc6Cl)O5)cc4)CC3)cc2)c1=O (stereo not drawn) [Itraconazole]
- MIC [1]: 2000 µg/mL (≈ 2830 µM)

Compound: [Cl-].[K+] [KCl, potassium chloride]
- reversal of defects associated with Valinomycin action [2]: failed to reverse

Compound: CCC(=C/[C@H](C)C/C=C/C(C)=C/[C@@H](C)C(=O)[C@@H](C)[C@H](O)[C@@H](C)C/C(C)=C/C(=O)O)/C=C/[C@@H]1OC(=O)C=C[C@@H]1C [Leptomycin B]
- Minimum Inhibitory Concentration (MIC), Guy11 [1]: 0.0075 µg/mL

Compound: CC1=CC(=O)c2ccccc2C1=O [Menadione]
- effect on host penetration compared to treatment with peroxide [3]: slightly reduced effect

Compound: CC(C)[C@@H]1NC(=O)[C@H](C)OC(=O)[C@@H](C(C)C)NC(=O)[C@@H](C(C)C)OC(=O)[C@H](C(C)C)NC(=O)[C@H](C)OC(=O)[C@@H](C(C)C)NC(=O)[C@@H](C(C)C)OC(=O)[C@H](C(C)C)NC(=O)[C@H](C)OC(=O)[C@@H](C(C)C)NC(=O)[C@@H](C(C)C)OC1=O [Valinomycin]
- MIC [1]: 20 µg/mL (≈ 18 µM)
- effect on conidia (germ tube emergence) [4]: complete blockage of conidial germ tube emergence
- germ tube growth [4]: inhibited
- frequency of appressoria formation [2]: 61±2%
- germ tube growth [2]: could withstand elevated concentration

Compound: COc1ccc(CCN(C)CCCC(C#N)(c2ccc(OC)c(OC)c2)C(C)C)cc1OC (stereo not drawn) [Verapamil]
- decrease in penetration peg formation [3]: ≤ 74%
- effect on germ tube emergence or growth [3]: without affecting

Compound: OO [hydrogen peroxide]
- ABC3 promoter driven destabilized-GFP fluorescence versus untreated control [5]: four fold higher
- growth under oxidative stress [6]: unaffected
- appressoria able to breach the host surface [3]: 36±2.8%
- peroxide level that blocked germ tube emergence [3]: exceeding 5 mM

Compound: C[n+]1ccc(-c2cc[n+](C)cc2)cc1 [paraquat]
- effect on host penetration compared to treatment with peroxide [3]: slightly reduced effect

Compound: Actinomycin D
- Minimum Inhibitory Concentration (MIC), Guy11 [1]: 15 µg/mL

Compound: Gramicidin D
- Minimum Inhibitory Concentration (MIC), Guy11 [1]: 180 µg/mL
